Earlier results in paper PMC4948595 (Journal of Medicinal Chemistry, 2016).

Tested on: influenza endonuclease

Question: Which IC50 does the source give for `O=c1[nH]cc(-c2ccc(-c3nnn[nH]3)cc2)cc1O` [Parhi-6] here?
Answer: Its IC50 is 368 ± 41 nM.
